{
  "source": "patent US7341749B2",
  "about": "“Flavopereirine and alstonine combinations in the treatment and prevention of prostate cancer” (Natural Source International Ltd., priority 2004, dated 2008)",
  "tested_on": "LNCaP cells",
  "assay": "Induction of apoptosis (PARP cleavage, Caspase-3 activity)",
  "type": "cell-based, human",
  "conditions": "inferred from the extract experiments",
  "data": [
    {"molecule": "COC(=O)C1=CO[C@@H](C)[C@@H]2Cn3ccc4c5ccccc5nc-4c3C[C@H]12", "note": "[alstonine]", "values": [
      {"measurement": "induction of the apoptosis pathway (mechanism of action of the active compound)", "result": "relatively minor effect"}
    ]},
    {"molecule": "CCc1ccc2c3[nH]c4ccccc4c3cc[n+]2c1", "note": "[flavopereirine]", "values": [
      {"measurement": "induction of the apoptosis pathway (mechanism of action of the active compound)", "result": "primary mechanism of action"}
    ]}
  ]
}
